The text below walks through data of publication PMC4830892, “A microarray-based approach to evaluate the functional significance of protein-binding motifs” (Analytical and Bioanalytical Chemistry, 2016).

For assay [1], the system named is proteins in Jurkat cell lysate (total cellular proteome). As to the kind of experiment: Competition of α-pY antibody binding with Jurkat cell lysate on peptide microarrays. The conditions noted are these: for Kd: from EC50 and Kd α-pY by Cheng-Prusoff equation (Eq. 4), ± standard deviation. The procedure: (§1) Peptides that correspond to known interaction motifs involved in the formation of protein complexes in T cell signalling were purchased from EMC microcollections (Tübingen, Germany). All peptides carried an extra cysteine residue and a free N-terminus for immobilisation on the microarray substrates and a C-terminal amidation (see Electronic Supplementary Material (ESM), Table S1).
(§2) For generation of microarrays, peptide stock solutions (3 mM) in DMF were diluted 30 times with phosphate buffer (100 mM, pH 8) supplemented with 0.006 % (v/v) Triton X-100. N-Hydroxysuccinimide-preactivated slides served as substrates for immobilisation (Nexterion Slide H, Schott Nexterion/Peq-Lab, Erlangen, Germany) using a Nano-Plotter NP2.0 (GeSIM, Großerkmannshof, Germany), which employs piezo-driven pipetting tips to dispense peptide solutions. Microarray slides comprised 16 subarrays of doublets of each peptide. For each peptide, a volume of 1.2 nl was dispensed at a centre-to-centre spacing of 500 μm. During printing, temperature was maintained at 15 °C and air humidity at 65 %.
Jurkat T cell leukaemia cells were maintained in RPMI 1640 medium (PAN-Biotech, Aisenbach, Germany) supplemented with 10 % foetal calf serum at 37 °C in 5 % CO2. For the preparation of lysates, cells were resuspended in lysis buffer (1 % Triton X-100, 50 mM n-octyl-D-glucopyranoside (Fluka, Taufkirchen, Germany), 20 mM Tris, 1 mM EDTA, 150 mM NaCl, 1 mM Na3VO4, pH 7.5, and complete protease inhibitor cocktail (Roche Applied Science, Mannheim, Germany)). Incubation on ice for 1 h was followed by centrifugation at 20,000×g at 4 °C for 15 min to remove cell debris. Transmembrane proteins were extracted from lipid rafts by using N-octyl-D-glucopyranoside. Protein concentrations were measured by Bradford Assay.
(§3) Sixteen incubation chambers with identical subarrays consisting of peptides derived from binding motifs of signalling proteins (see ESM Table S1) were generated by attaching a clip-on frame to the microarray substrate (ProPlate Multiarray System, Grace Biolabs, Molecular Probes, Eugene, OR, USA). The typical incubation volume for the subarrays was 50 μl. Microarrays were either incubated with an α-pY antibody (α-pTyr 100, 9411, Cell Signalling, Frankfurt am Main, Germany) at the indicated concentrations or co-incubated with cell lysate at the indicated concentrations for 3 h at 4 °C. Additionally, in another set of experiments, recombinant GRB2-SH2 was incubated on microarrays alone or co-incubated with cell lysate employing an α-penta HIS antibody (34600, Qiagen, Hilden, Germany) for the detection of His-tagged GRB2-SH2.
(§4) After incubation, microarrays were washed three times with washing buffer (PBS, 0.05 % (w/v) BSA, 0.05 % (w/v) Tween-20). For the detection of signals, microarrays were incubated with a secondary α-mouse antibody conjugated with Alexa633 (A-21050, Invitrogen) at a concentration of 1 μg/ml for 15 min at RT followed by a last washing step with washing buffer. Microarrays were dried with nitrogen and scanned using a ProScanArray (PerkinElmer Life Sciences, Waltham, Massachusetts), and the data were analysed using ArrayPro Analyzer software (Media Cybernetics, Silver Spring, USA) as described before. Final data represented the mean signal intensities corrected for the median of a ring-shaped local background surrounding the respective peptide spot. Titrations with α-pY antibody and GRB2-SH2 were performed to calculate dissociation constants (see below).
For determination of EC50 values for competition with cell lysate, curves were fitted according to2 y=y0+Ae^−x/t with y0 as the signal intensity of the α-pY antibody or the recombinant GRB2-SH2 domain without cell lysate, A the amplitude, x the protein concentration in lysate, and t the decay constant. […]

In assay [2] the target is α-phosphotyrosine antibody (α-pTyr 100). As to the kind of experiment: Titration of α-pY antibody on peptide microarrays. It counts as binding. The conditions noted are these: for Kd: peptide microarray, α-pY antibody 0.06 to 6.66 nM, 3 h at 4 °C, indirect immunofluorescence (Alexa633), bimolecular binding isotherm (Eq. 1), average ± standard deviation, six independent experiments; for α-pY titration curve / binding: result in words, R^2 of 0.8 as cutoff for a binder. The procedure:
as §1, §2, §3, §4
The resulting titration curves were fitted with Origin (OriginLab Corporation, v.6.1057, Northampton, USA) using a binding isotherm for a bimolecular interaction (Eq. 1):1 Fabs=Fmaxprot/Kd+prot Fabs represents the intensity of a microarray spot after background correction and [prot] the concentration of the titrated binder. Kd and Fmax were obtained from the fits.
To render this approach quantitative, first the affinities of the α-pY antibody towards the phosphotyrosine motifs of the microarrays were determined. […] The titration curves were fitted with a binding isotherm for a bimolecular interaction (Eq. 1, Fig. 2a, Table 1). In general, a coefficient of determination (R^2) of 0.8 was used as a cutoff in order to score a peptide as a binder. […] Regarding the poly-proline motif (PP) containing peptides present on the microarray, only on the peptide GAB2-509 in five experiments, a titration curve with an R^2 > 0.8 could be generated.

Assay [3] has as its system SH2 domain of GRB2 (GRB2-SH2). The conditions noted are these: Kd values of GRB2-SH2 described in recently published manuscript; ref [14]; cited from earlier work. From the text: In contrast, the data points for LATpY191 and SHP1pY564, and SigpY437, ZAPpY319 and CDζpY72/83 were above or below the linear correlation defined by the first four peptides. […] SigpY437, in contrast, is a poor binder for which already low concent ...

Non-standard residues stand in square brackets, D forms with d. Residues, ends and D or L forms follow the SMILES beside them. pY = N[C@@H](Cc1ccc(OP(=O)(O)O)cc1)C(=O)O; Ahx = NCCCCCC(=O)O

A word on the Kd: it is the constant that tells how readily two partners part at equilibrium. Higher therefore signals lower affinity.

Take `CC(C)C[C@H](NC(=O)[C@@H](NC(=O)[C@H](CC(=O)O)NC(=O)[C@H](Cc1ccc(OP(=O)(O)O)cc1)NC(=O)[C@H](CCC(=O)O)NC(=O)[C@H](CCC(=O)O)NC(=O)[C@H](CCCNC(=N)N)NC(=O)[C@H](CCCNC(=N)N)NC(=O)CNC(=O)[C@H](CC(C)C)NC(=O)[C@H](CC(N)=O)NC(=O)[C@H](CC(C)C)NC(=O)[C@H](CCC(=O)O)NC(=O)[C@H](CC(N)=O)NC(=O)[C@H](Cc1ccc(OP(=O)(O)O)cc1)NC(=O)[C@H](CC(C)C)NC(=O)[C@H](CCC(N)=O)NC(=O)[C@H](CC(N)=O)NC(=O)CCCCCNC(=O)[C@@H](N)CS)C(C)C)C(N)=O` [CD3ζpY72/83] (H-C[Ahx]NQL[pY]NELNLGRREE[pY]DVL-NH2): the dissociation constant Kd in assay [1] was 25000 ± 27000 nM; in assay [2], 0.69 ± 0.61 nM.

Consider `CC(C)[C@H](NC(=O)[C@H](CC(=O)O)NC(=O)[C@H](CC(=O)O)NC(=O)[C@H](Cc1ccc(OP(=O)(O)O)cc1)NC(=O)[C@@H](NC(=O)[C@H](CCC(=O)O)NC(=O)[C@H](CCC(N)=O)NC(=O)[C@H](CC(=O)O)NC(=O)[C@H](CC(=O)O)NC(=O)[C@H](CCC(=O)O)NC(=O)[C@@H](N)CS)C(C)C)C(=O)N[C@@H](C)C(=O)N[C@@H](CCC(=O)O)C(=O)N[C@@H](CCC(N)=O)C(=O)N[C@@H](CC(=O)O)C(N)=O` [FYBpY595] (H-CEDDQEV[pY]DDVAEQD-NH2), for which the equilibrium dissociation constant (Kd) in assay [2] was 0.77 ± 0.28 nM.

For `CC[C@H](C)[C@H](NC(=O)CNC(=O)[C@H](CC(=O)O)NC(=O)[C@H](Cc1ccc(OP(=O)(O)O)cc1)NC(=O)[C@@H](NC(=O)[C@H](CC(=O)O)NC(=O)[C@H](CC(=O)O)NC(=O)[C@H](CC(=O)O)NC(=O)[C@@H](N)CS)[C@@H](C)CC)C(=O)N[C@@H](CCC(=O)O)C(=O)N[C@@H](CCC(=O)O)C(=O)N[C@@H](CCC(=O)O)C(=O)N[C@@H](CC(=O)O)C(N)=O` [FYBpY625] (H-CDDDI[pY]DGIEEED-NH2), the results for the Kd in assay [1] and in assay [2] were 17000 ± 13000 nM and 0.46 ± 0.15 nM, respectively.

As to `CSCC[C@H](NC(=O)[C@H](CC(=O)O)NC(=O)[C@H](CC(C)C)NC(=O)[C@@H](N)CS)C(=O)NCC(=O)N[C@@H](CC(=O)O)C(=O)N[C@@H](CCC(=O)O)C(=O)N[C@H](C(=O)N[C@@H](Cc1ccc(OP(=O)(O)O)cc1)C(=O)N[C@@H](CC(=O)O)C(=O)N[C@@H](CC(=O)O)C(=O)N[C@H](C(=O)N[C@@H](CC(=O)O)C(=O)N[C@H](C(=O)N[C@@H](CO)C(=O)N[C@@H](CC(=O)O)C(=O)N[C@@H](Cc1ccccc1)C(N)=O)[C@@H](C)O)C(C)C)C(C)C` [FYBpY651] (H-CLDMGDEV[pY]DDVDTSDF-NH2), the figures for the dissociation constant Kd in assay [1] and in assay [2] were 12000 ± 9000 nM and 0.28 ± 0.09 nM, respectively.

Turning to `CC[C@H](C)[C@H](NC(=O)[C@H](CC(=O)O)NC(=O)[C@H](CC(=O)O)NC(=O)[C@H](Cc1ccc(OP(=O)(O)O)cc1)NC(=O)[C@@H](NC(=O)[C@H](CCC(=O)O)NC(=O)CNC(=O)[C@H](CC(=O)O)NC(=O)[C@H](CC(N)=O)NC(=O)[C@@H](N)CS)[C@@H](C)CC)C(=O)N[C@@H](C)C(=O)N[C@@H](CC(=O)O)C(=O)NCC(N)=O` [FYBpY771] (H-CNDGEI[pY]DDIADG-NH2), the “affinity for / binding to cellular proteome (in words)” value in assay [1] (competition of α-pY with cell lysate, FYB peptides) was “highest affinity of all four FYB peptides”. The Kd is 5000 ± 1000 nM in assay [1] and 0.5 ± 0.23 nM in assay [2].

Consider `CC(C)C[C@H](NC(=O)[C@H](Cc1ccc(OP(=O)(O)O)cc1)NC(=O)CNC(=O)[C@@H]1CCCN1C(=O)[C@H](CC(N)=O)NC(=O)[C@H](Cc1c[nH]cn1)NC(=O)[C@H](Cc1ccc(O)cc1)NC(=O)[C@H](CC(=O)O)NC(=O)[C@H](CC(=O)O)NC(=O)[C@H](CCC(=O)O)NC(=O)[C@H](CC(=O)O)NC(=O)[C@H](CCC(=O)O)NC(=O)[C@@H](N)CS)C(=O)N[C@H](C(=O)N[C@H](C(=O)N[C@@H](CC(C)C)C(=O)N1CCC[C@H]1C(=O)N[C@@H](CC(=O)O)C(=O)N[C@@H](CO)C(=O)N[C@H](C(=O)N1CCC[C@H]1C(N)=O)[C@@H](C)O)C(C)C)C(C)C` [LATpY132] (H-CEDEDDYHNPG[pY]LVVLPDSTP-NH2), for which the dissociation constant Kd in assay [1] came out at 11000 ± 13000 nM; in assay [2], 0.41 ± 0.38 nM. Besides, the “binding to GRB2 / GRB2-SH2 (in words)” value in assay [3] was “good binder”.

On to `CC(C)C[C@H](NC(=O)[C@H](CCC(=O)O)NC(=O)[C@H](CCC(N)=O)NC(=O)[C@H](CC(C)C)NC(=O)[C@H](CC(N)=O)NC(=O)[C@H](CCC(=O)O)NC(=O)[C@H](Cc1ccc(OP(=O)(O)O)cc1)NC(=O)[C@H](CC(=O)O)NC(=O)[C@@H]1CCCN1C(=O)[C@H](C)NC(=O)CNC(=O)[C@H](CCC(=O)O)NC(=O)[C@H](CCC(=O)O)NC(=O)[C@H](CCC(=O)O)NC(=O)[C@@H](NC(=O)[C@H](CCC(=O)O)NC(=O)[C@@H](N)CS)C(C)C)C(=O)N[C@@H](CC(N)=O)C(N)=O` [LATpY226] (H-CEVEEEGAPD[pY]ENLQELN-NH2), for which the results for the Kd in assay [1] and in assay [2] were 15000 ± 11000 nM and 0.44 ± 0.27 nM, respectively. In assay [3], the “binding to GRB2 / GRB2-SH2 (in words)” value is “good binder”.

For `CSCC[C@H](NC(=O)[C@@H]1CCCN1C(=O)[C@H](CC(N)=O)NC(=O)[C@H](C)NC(=O)[C@H](CCC(=O)O)NC(=O)[C@@H](NC(=O)[C@H](Cc1ccc(OP(=O)(O)O)cc1)NC(=O)[C@H](Cc1ccccc1)NC(=O)CNC(=O)[C@@H]1CCCN1C(=O)[C@H](CC(N)=O)NC(=O)[C@H](CCCNC(=N)N)NC(=O)CNC(=O)[C@H](CCC(=O)O)NC(=O)[C@@H](N)CS)C(C)C)C(=O)N1CCC[C@H]1C(=O)N[C@H](C(N)=O)[C@@H](C)O` [PLCγpY783] (H-CEGRNPGF[pY]VEANPMPT-NH2), the Kd was determined as 7000 ± 2000 nM in assay [1] and 0.55 ± 0.33 nM in assay [2]. Further, the “binding to GRB2 / GRB2-SH2 (in words)” value in assay [3] is “good binder”.

On to `CC(C)C[C@H](NC(=O)[C@H](CCC(=O)O)NC(=O)[C@H](CCC(=O)O)NC(=O)[C@@H]1CCCN1C(=O)[C@H](CC(=O)O)NC(=O)[C@H](CO)NC(=O)[C@H](Cc1ccc(OP(=O)(O)O)cc1)NC(=O)[C@@H]1CCCN1C(=O)[C@H](CO)NC(=O)[C@H](CCC(=O)O)NC(=O)[C@H](Cc1ccc(O)cc1)NC(=O)[C@@H](NC(=O)[C@@H](N)CS)C(C)C)C(=O)N[C@@H](CCCCN)C(=O)N[C@@H](CC(=O)O)C(N)=O` [ZAPpY319] (H-CVYESP[pY]SDPEELKD-NH2), for which the equilibrium dissociation constant (Kd) in assay [1] was determined as 26000 ± 32000 nM; in assay [2] it was 0.6 ± 0.46 nM.

Regarding CGNKGRSGPLPPVPLGIA-NH2 [WAS334], the “α-pY titration curve / binding” value in assay [2] is “no titration curves could be generated”.

In the case of CLDIQDKPPAPPMRNT-NH2 [PAK6], the “α-pY titration curve / binding” value in assay [2] is listed as “no titration curves could be generated”.
